Earlier results, collected in patent US20180326089A1, “PROTEIN NANOSTRUCTURE BASED DRUG DELIVERY SYSTEM FOR THE DELIVERY OF THERAPEUTIC AGENTS TO THE ANTERIOR SEGMENT OF THE EYE” (Council of Scientific & Industrial Research, priority 2015, published 2018).

Compound: CC(=O)N1CCN(c2ccc(OCC3COC(Cn4ccnc4)(c4ccc(Cl)cc4Cl)O3)cc2)CC1 (stereo not shown) [Ketoconazole]
- water solubility: poorly water soluble
